Measurements: patent publication US9902722B2, “Biaryl kinase inhibitors” (BRISTOL-MYERS SQUIBB COMPANY, priority 2014, dated 2018)

Biological target: GST-Xa-hAAK1 (Homo sapiens (Human), UniProt Q2M2I8)
Assay: AAK1 Kinase Assay;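 note: each compound tested across an eleven-point concentration series, with IC50 obtained through non-linear regression fitting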
Type: biochemical
Settings: bacterially expressed GST-Xa-hAAK1 3.5 nM; ATP 22 μM; peptide substrate 1.5 μM; 3 hours at room temperature; Caliper LabChip 3000

Sequence of GST-Xa-hAAK1 (Q2M2I8 whole entry): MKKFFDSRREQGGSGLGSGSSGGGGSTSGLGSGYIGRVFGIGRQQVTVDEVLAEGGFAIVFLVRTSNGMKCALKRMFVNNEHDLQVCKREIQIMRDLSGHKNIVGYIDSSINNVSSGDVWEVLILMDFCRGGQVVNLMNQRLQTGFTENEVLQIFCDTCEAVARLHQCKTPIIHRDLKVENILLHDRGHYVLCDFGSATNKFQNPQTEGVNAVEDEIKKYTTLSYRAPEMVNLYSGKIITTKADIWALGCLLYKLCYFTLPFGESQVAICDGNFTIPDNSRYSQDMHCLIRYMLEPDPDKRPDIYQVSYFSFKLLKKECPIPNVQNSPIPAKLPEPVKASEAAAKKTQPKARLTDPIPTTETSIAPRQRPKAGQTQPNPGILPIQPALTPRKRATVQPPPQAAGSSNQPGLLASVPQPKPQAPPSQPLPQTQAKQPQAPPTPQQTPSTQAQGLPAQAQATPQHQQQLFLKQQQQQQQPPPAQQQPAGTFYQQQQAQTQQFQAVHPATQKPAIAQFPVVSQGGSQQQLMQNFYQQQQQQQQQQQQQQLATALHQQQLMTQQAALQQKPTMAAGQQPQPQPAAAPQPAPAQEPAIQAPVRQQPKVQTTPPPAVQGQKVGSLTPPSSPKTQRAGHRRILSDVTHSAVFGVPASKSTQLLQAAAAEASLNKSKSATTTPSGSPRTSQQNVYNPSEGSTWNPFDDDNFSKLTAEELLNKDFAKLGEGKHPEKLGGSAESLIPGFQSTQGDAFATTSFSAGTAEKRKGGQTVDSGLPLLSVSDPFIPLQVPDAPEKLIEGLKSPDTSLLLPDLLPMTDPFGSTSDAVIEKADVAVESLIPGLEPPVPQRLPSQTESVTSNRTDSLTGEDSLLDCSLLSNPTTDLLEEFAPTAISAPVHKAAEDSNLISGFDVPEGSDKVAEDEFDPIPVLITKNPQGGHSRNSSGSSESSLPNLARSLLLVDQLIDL

Row | Compound | IC50
1 | COC(=O)Nc1nccc(-c2ccc(OC[C@@](C)(N)CC(C)C)c(C)n2)c1F [Example 157, (S)-methyl (5-((2-amino-2,4-dimethylpentyl)oxy)-3′-fluoro-6-methyl-[2,4′-bipyridin]-2′-yl)carbamate] | 19 nM
2 | CC(C)C[C@](C)(N)COc1ccc(-c2ccnc(Cl)c2)nc1C(F)F [Example 158, (S)-1-((2′-chloro-6-(difluoromethyl)-[2,4′-bipyridin]-5-yl)oxy)-2,4-dimethylpentan-2-amine] | 5.4 nM
3 | Cc1cc(-c2cc(C(F)F)c(OC[C@@](C)(N)CC(C)C)cn2)cnn1 [Example 162, (S)-1-((4-(difluoromethyl)-6-(6-methylpyridazin-4-yl)pyridin-3-yl)oxy)-2,4-dimethylpentan-2-amine] | 530 nM
4 | Cc1cc(-c2ccc(OC[C@@](C)(N)CC(C)C)c(C(F)F)n2)cnn1 [Example 163, (S)-1-((2-(difluoromethyl)-6-(6-methylpyridazin-4-yl)pyridin-3-yl)oxy)-2,4-dimethylpentan-2-amine] | 1100 nM
5 | Cc1cc(-c2cc(C(F)(F)F)c(OC[C@](C)(N)CC(C)C)cn2)ccn1 [Example 164, (R)-2,4-dimethyl-1-((2′-methyl-4-(trifluoromethyl)-[2,4′-bipyridin]-5-yl)oxy)pentan-2-amine] | 254 nM
6 | COC(=O)Nc1cc(-c2cc(C(F)(F)F)c(OC[C@](C)(N)CC(C)C)cn2)ccn1 [Example 166, (R)-methyl (5-((2-amino-2,4-dimethylpentyl)oxy)-4-(trifluoromethyl)-[2,4′-bipyridin]-2′-yl)carbamate] | 20 nM
7 | CCc1cc(-c2cc(C(F)F)c(OC[C@](C)(N)CC(C)C)cn2)ccn1 [Example 170, (R)-1-((4-(difluoromethyl)-2′-ethyl-[2,4′-bipyridin]-5-yl)oxy)-2,4-dimethylpentan-2-amine] | 285 nM
8 | COC(=O)Nc1cc(-c2ccc(OC[C@](C)(N)CC(C)C)c(C)n2)ccn1 [Example 173, (R)-methyl (5-((2-amino-2,4-dimethylpentyl)oxy)-6-methyl-[2,4′-bipyridin]-2′-yl)carbamate] | 42 nM
9 | CC(C)C[C@@](C)(N)COc1ccc(-c2ccnc(C(F)F)c2)nc1C(F)F [Example 174, (R)-1-((2′,6-bis(difluoromethyl)-[2,4′-bipyridin]-5-yl)oxy)-2,4-dimethylpentan-2-amine] | 54 nM
10 | CC(C)C[C@@](C)(N)COc1cnc(-c2ccnc(C(F)F)c2)cc1C(F)F [Example 175, (R)-1-((2′,4-bis(difluoromethyl)-[2,4′-bipyridin]-5-yl)oxy)-2,4-dimethylpentan-2-amine] | 17 nM
11 | CC(C)C[C@](C)(O)COc1cnc(-c2ccnc3ccccc23)cc1C(F)F [Example 176, (S)-1-((4-(difluoromethyl)-6-(quinolin-4-yl)pyridin-3-yl)oxy)-2,4-dimethylpentan-2-ol] | 53 nM
12 | Cc1cc(-c2cc(C(F)F)c(OC[C@@](C)(O)CC(C)C)cn2)ccn1 [Example 178, (S)-1-((4-(difluoromethyl)-2′-methyl-[2,4′-bipyridin]-5-yl)oxy)-2,4-dimethylpentan-2-ol] | 150 nM
13 | COC(=O)Nc1cc(-c2ccc(OC[C@@](N)(CF)CC(C)C)c(C(F)F)n2)ccn1 [Example 180, (R)-methyl (5-((2-amino-2-(fluoromethyl)-4-methylpentyl)oxy)-6-(difluoromethyl)-[2,4′-bipyridin]-2′-yl)carbamate] | 24 nM
14 | COC(=O)Nc1cc(-c2cc(C(F)F)c(OC[C@](N)(CF)CC(C)C)cn2)ccn1 [Example 181, (S)-methyl (5-((2-amino-2-(fluoromethyl)-4-methylpentyl)oxy)-4-(difluoromethyl)-[2,4′-bipyridin]-2′-yl)carbamate] | 1.9 nM
15 | CC(C)C[C@@](N)(CF)COc1cnc(-c2ccnc(C(F)F)c2)cc1C(F)F [Example 184, (S)-1-((2′,4-bis(difluoromethyl)-[2,4′-bipyridin]-5-yl)oxy)-2-(fluoromethyl)-4-methylpentan-2-amine] | 3.3 nM
16 | CC(C)C[C@](N)(CF)COc1ccc(-c2ccnc(C(F)F)c2)nc1C(F)F [Example 185, (R)-1-((2′,6-bis(difluoromethyl)-[2,4′-bipyridin]-5-yl)oxy)-2-(fluoromethyl)-4-methylpentan-2-amine] | 66 nM
17 | CC(C)C[C@](N)(CF)COc1cnc(-c2ccnc(C(F)F)c2)cc1C(F)F [Example 186, (R)-1-((2′,4-bis(difluoromethyl)-[2,4′-bipyridin]-5-yl)oxy)-2-(fluoromethyl)-4-methylpentan-2-amine] | 18 nM

The next lines start with the values.

Row | IC50 | Compound
18 | 1.9 nM | Cc1nc(-c2ccnc(N)c2F)ccc1OC[C@@](C)(N)CC(C)C [Example 153, (S)-5-((2-amino-2,4-dimethylpentyl)oxy)-3′-fluoro-6-methyl-[2,4′-bipyridin]-2′-amine]
19 | 57 nM | COC(=O)Nc1cc(-c2ccc(OC[C@@](C)(N)CC(C)C)c(C)n2)c(F)cn1 [Example 155, (S)-methyl (5-((2-amino-2,4-dimethylpentyl)oxy)-5′-fluoro-6-methyl-[2,4′-bipyridin]-2′-yl)carbamate]
20 | 1.5 nM | CC(C)C[C@](C)(N)COc1ccc(-c2ccnc(Cl)c2F)nc1C(F)F [Example 159, (S)-1-((2′-chloro-6-(difluoromethyl)-3′-fluoro-[2,4′-bipyridin]-5-yl)oxy)-2,4-dimethylpentan-2-amine]
21 | 0.8 nM | Cc1nccc(-c2ccc(OC[C@@](C)(N)CC(C)C)c(C(F)F)n2)c1F [Example 160, (S)-1-((6-(difluoromethyl)-3′-fluoro-2′-methyl-[2,4′-bipyridin]-5-yl)oxy)-2,4-dimethylpentan-2-amine]
22 | 21 nM | CC(C)C[C@@](C)(N)COc1cnc(-c2ccnc3ccccc23)cc1C(F)(F)F [Example 165, (R)-2,4-dimethyl-1-((6-(quinolin-4-yl)-4-(trifluoromethyl)pyridin-3-yl)oxy)pentan-2-amine]
23 | 8.7 nM | COC(=O)Nc1cc(-c2cc(C(F)F)c(OC[C@@](C)(O)CC(C)C)cn2)ccn1 [Example 177, (S)-methyl (4-(difluoromethyl)-5-((2-hydroxy-2,4-dimethylpentyl)oxy)-[2,4′-bipyridin]-2′-yl)carbamate]
24 | 2 nM | COC(=O)Nc1cc(-c2ccc(OC[C@](N)(CF)CC(C)C)c(C(F)F)n2)ccn1 [Example 179, (S)-methyl (5-((2-amino-2-(fluoromethyl)-4-methylpentyl)oxy)-6-(difluoromethyl)-[2,4′-bipyridin]-2′-yl)carbamate]
25 | 8.7 nM | COC(=O)Nc1cc(-c2cc(C(F)F)c(OC[C@@](N)(CF)CC(C)C)cn2)ccn1 [Example 182, (R)-methyl (5-((2-amino-2-(fluoromethyl)-4-methylpentyl)oxy)-4-(difluoromethyl)-[2,4′-bipyridin]-2′-yl)carbamate]
26 | 8.8 nM | CC(C)C[C@@](N)(CF)COc1ccc(-c2ccnc(C(F)F)c2)nc1C(F)F [Example 183, (S)-1-((2′,6-bis(difluoromethyl)-[2,4′-bipyridin]-5-yl)oxy)-2-(fluoromethyl)-4-methylpentan-2-amine]
27 | 2.2 nM | Cc1cc(-c2cc(C(F)F)c(OC[C@](N)(CF)CC(C)C)cn2)ccn1 [Example 187, (S)-1-((4-(difluoromethyl)-2′-methyl-[2,4′-bipyridin]-5-yl)oxy)-2-(fluoromethyl)-4-methylpentan-2-amine]
